Each structure is given as a SMILES string.

The target of this assay is T1, ME (NAD-dependent malic enzyme); ME∗ (ME mutant with L310R/Q401C) (Escherichia coli, UniProt P26616).
T1 construct: gene maeA; recombinant from E. coli BL21(DE3), pET24b-ME, Ni-NTA purified; 64 kDa
The assay can be described thus: malate oxidative decarboxylation, absorbance at […] nm. To be noted: 0.5 mM NCD, 5 mM malate, 2 mM MgCl2, 50 mM HEPES pH 7.5; weak. Type of assay: biochemical.

T1 sequence (P26616 whole entry, stated change not applied): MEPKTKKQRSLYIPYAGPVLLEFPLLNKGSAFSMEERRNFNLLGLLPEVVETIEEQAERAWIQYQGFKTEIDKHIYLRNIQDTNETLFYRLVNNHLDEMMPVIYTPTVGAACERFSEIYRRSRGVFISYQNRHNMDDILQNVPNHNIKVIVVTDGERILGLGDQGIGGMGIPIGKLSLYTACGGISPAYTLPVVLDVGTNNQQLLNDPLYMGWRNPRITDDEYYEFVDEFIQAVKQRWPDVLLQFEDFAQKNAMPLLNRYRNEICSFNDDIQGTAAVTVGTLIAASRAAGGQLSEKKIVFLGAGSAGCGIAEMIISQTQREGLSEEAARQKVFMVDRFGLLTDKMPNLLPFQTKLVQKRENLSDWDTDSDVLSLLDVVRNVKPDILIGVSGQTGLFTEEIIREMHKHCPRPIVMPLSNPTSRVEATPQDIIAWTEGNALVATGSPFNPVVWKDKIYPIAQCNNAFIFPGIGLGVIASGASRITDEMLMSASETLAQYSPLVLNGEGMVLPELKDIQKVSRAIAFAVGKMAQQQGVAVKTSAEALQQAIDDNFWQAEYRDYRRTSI

As to `NC(=O)c1ccc[n+]([C@@H]2O[C@H](COP(=O)([O-])OP(=O)(O)OC[C@H]3O[C@@H](n4ccc(N)nc4=O)[C@H](O)[C@@H]3O)[C@@H](O)[C@H]2O)c1` [NCD], the “malate oxidative decarboxylation, absorbance at 340 nm” value is “ME exhibited the highest activity towards NAD and weak activity towards NCD and NADP”.

(Values after PMC12492669, “Malic enzyme-based system for transhydrogenation between nicotinamide cofactors” (Synthetic and Systems Biotechnology, 2025).)
